From patent US20210393614A1, “QUINONE REDUCTASE 2 INHIBITORS FOR USE AS NEUROPROTECTIVE AGENTS” (DUKE UNIVERSITY, priority 2018, published 2021)

Columns and labels:
[1] = tested on: vascular dementia (BCAS mice); assay: Murine model of vascular dementia (BCAS); format: in vivo; conditions: for Morris water maze escape latency: versus vehicle, n=10
Description: Vascular dementia is caused by chronic cerebral hypoperfusion and is characterized clinically by white matter lesions on MRI and a decline in executive function. […] Physiological, cellular, and functional outcomes were determined using a combination of quantitative immunochemistry, MRI, and behavioral tasks including Morris water maze and rotorod.

[2] = tested on: permanent MCA occlusion model; conditions: cited from earlier work
[3] = tested on: CPB/DHCA perioperative cerebral injury; assay: Rat model of cardiopulmonary bypass (CPB)/deep hypothermic circulatory arrest (DHCA); format: in vivo, Sprague-Dawley rats; conditions: for apoptotic and necrotic neurons in cortex and hippocampus: 25 mg/kg, 48 hours after DHCA, FIG. 6, FIG. 7; for decrease in post-operative blood brain barrier permeability (gadolinium chelate, MRI): compared to respective control groups, p<0.05, preliminary results
Description: Perioperative cerebral injury (PCI) following major cardiovascular surgery using cardiopulmonary bypass (CPB) and deep hypothermic circulatory arrest (DHCA) remains a significant cause of adverse cerebral outcome. […] Cannulas were placed in the tail artery and the right external jugular vein. Animals were then cooled on CPB for 30 minutes, and DHCA was instituted at a pericranial temperature of 16-18° C. […] MRI was performed on day-1 post-operatively, neurological assessments on day 1 and 2 post-operatively, and animals then sacrificed after day 2.

[4] = tested on: transient middle cerebral artery (MCA) occlusion; assay: Mouse model of transient middle cerebral artery (MCA) occlusion; format: in vivo
[5] = during therapeutic dosing; cited from earlier work
QR2 = molecular target: T1, QR2 (Homo sapiens, UniProt P16083); assay: Inhibition of QR2 (IC50, Table 1); format: biochemical; conditions: for IC50: inhibitors of QR2, mean +/− SD; for LiPE (pIC50-clogP): lipophilic efficiency, QR2 pIC50 minus clog P
T1 sequence (P16083 1-231): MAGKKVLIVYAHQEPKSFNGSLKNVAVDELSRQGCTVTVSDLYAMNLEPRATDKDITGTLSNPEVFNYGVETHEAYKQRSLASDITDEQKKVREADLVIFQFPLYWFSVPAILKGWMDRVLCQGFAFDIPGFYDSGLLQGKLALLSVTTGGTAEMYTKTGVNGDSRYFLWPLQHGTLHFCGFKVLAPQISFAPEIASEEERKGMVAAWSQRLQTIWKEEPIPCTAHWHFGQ

[6] = in vivo
[7] = tested on: TBI model of diffuse closed head injury; assay: Murine TBI model of diffuse closed head injury; format: in vivo; conditions: single 25 mg/kg administration, n=12/gp
Excerpt: The neuroprotective potential of QR2 inhibition was investigated in a murine TBI model of diffuse closed head injury (Laskowitz et al., “Neuroprotective pentapeptide CN-105 is associated with reduced sterile inflammation and improved functional outcomes in a traumatic brain injury murine model.” Sci. Rep. 2017 Apr. 21; 7:46461).

[8] = tested on: intracranial hemorrhagic injury; assay: Mouse model of intracranial hemorrhagic injury; format: in vivo; conditions: single 25 mg/kg i.p. dose

IC50 (QR2)	LiPE (pIC50-clogP) (QR2)	Compound	Morris water maze escape latency [1]	apoptotic and necrotic neurons in cortex and hippocampus [3]	decrease in post-operative blood brain barrier permeability (gadolinium chelate, MRI) [3]	further results
–	–	CCN(CC)CCCC(C)Nc1ccnc2cc(Cl)ccc12 (stereo not shown) [chloroquine]	performance profile similar to their N-MCQ counterparts	fewer apoptotic and necrotic neurons	3%	reduction of stroke volumes [2]: 60%; stroke evolution between 4 and 24 hours by DW-MRI ([4]; single i.p. 25 mg/kg 90 minutes after ischemia onset): reduction in stroke evolution; reduction in overall stroke volume ([4]; single i.p. 25 mg/kg 90 minutes after ischemia onset, post-mortem histology at 72 hours): 55%; plasma concentration [5]: < 1000 nM
2.7 µM	1.65	Oc1ccc(CCNc2ccnc3cc(Cl)ccc23)cc1 [Example Compound A, 4-{2-[(7-chloroquinolin-4-yl)amino]ethyl}phenol]	–	–	–	–
–	4.30	COc1cc(NCc2ccccn2)c2ncccc2c1 [Example Compound B, 6-methoxy-N-(pyridin-2-ylmethyl)quinolin-8-amine]	–	–	–	–
0.85 µM	3.42	COc1cc(NC(C)c2ccco2)c2ncccc2c1 (stereo not shown) [Example Compound C, N-[1-(furan-2-yl)ethyl]-6-methoxyquinolin-8-amine]	–	–	–	–
0.55 µM	2.71	Clc1ccc2c(Nc3ccccn3)ccnc2c1 [Example Compound D, 7-chloro-N-(pyridin-2-yl)quinolin-4-amine]	–	–	–	–

Compound	IC50 (QR2)	LiPE (pIC50-clogP) (QR2)	Morris water maze escape latency [1]	apoptotic and necrotic neurons in cortex and hippocampus [3]	decrease in post-operative blood brain barrier permeability (gadolinium chelate, MRI) [3]	further results
CNc1ccnc2cc(Cl)ccc12 [7C-4MAQ, 7-chloro-N-methylquinolin-4-amine]	–	4.67	decreased escape latencies compared to vehicle controls	fewer apoptotic and necrotic neurons	3%	Morris water maze probe trial, time in target quadrant ([1]; p<0.05 group effect): significantly more time in the target quadrant; LD50 relative to the 25 mg/kg dose [6]: more than 20 times; neurological scores at post-op day 1 and 2 ([3]; 25 mg/kg 2 hours before CPB/DHCA, FIG. 8): significantly improved neurological scores; reductions in cortical stroke volumes relative to those after CQ ([4]; equivalent single acute phase dose 25 mg/kg, FIG. 3C): ~2 ×; improvement in Morris water maze performance ([7]; 1 month following injury): 62%; improvement over vehicle in rotorod latency [7]: 20%; improvement in motor function (rotorod assessment) [8]: 21%
